Measured values taken from publication PMC5218480 (PLoS ONE, 2017).

System: MV-4-11 cells
Experiment: Gene expression microarray analysis (Affymetrix PrimeView) and GSEA
Assay type: cell-based, human
Design: RFU PODN (11730768_x_at) / Fold change /veh PODN (11730768_x_at) / RFU LINC00158 (11744669_a_at) / Fold change /veh LINC00158 (11744669_a_at) / RFU DUSP10 (11751237_a_at) / Fold change /veh DUSP10 (11751237_a_at) / RFU ID3 (11757404_x_at) / Fold change /veh ID3 (11757404_x_at) / RFU PLEKHG5 (11737974_s_at) / Fold change /veh PLEKHG5 (11737974_s_at) / RFU LRRC4B (11730491_at) / Fold change /veh LRRC4B (11730491_at) / RFU GIMAP4 (11747438_a_at) / Fold change /veh GIMAP4 (11747438_a_at) / RFU KRT8 (11758183_x_at) / Fold change /veh KRT8 (11758183_x_at) / RFU CNN1 (11734310_a_at) / Fold change /veh CNN1 (11734310_a_at) / RFU VPS37D (11726825_at) / Fold change /veh VPS37D (11726825_at) / RFU C10orf10 (11716522_x_at) / Fold change /veh C10orf10 (11716522_x_at) / RFU KIR2DL2 /// KIR2DL4 /// KIR2DL5A /// KIR2DL5B /// KIR2DS1 /// KIR2DS2 /// KIR2DS3 /// KIR2DS4 /// KIR3DL3 /// KIR3DL3 /// KIR3DS1 (11738374_at) / Fold change /veh KIR2DL2 /// KIR2DL4 /// KIR2DL5A /// KIR2DL5B /// KIR2DS1 /// KIR2DS2 /// KIR2DS3 /// KIR2DS4 /// KIR3DL3 /// KIR3DL3 /// KIR3DS1 (11738374_at) / RFU C1QL1 (11718748_at) / Fold change /veh C1QL1 (11718748_at) / RFU TMPRSS4 (11747572_a_at) / Fold change /veh TMPRSS4 (11747572_a_at) / RFU HAMP (11756126_x_at) / Fold change /veh HAMP (11756126_x_at) / RFU RNFT2 (11725882_a_at) / Fold change /veh RNFT2 (11725882_a_at) / RFU NR4A2 (11747474_a_at) / Fold change /veh NR4A2 (11747474_a_at) / RFU ABCC12 (11746883_a_at) / Fold change /veh ABCC12 (11746883_a_at) / RFU TMEM136 (11760407_x_at) / Fold change /veh TMEM136 (11760407_x_at) / RFU CLDN22 /// WWC2 (11732394_at) / Fold change /veh CLDN22 /// WWC2 (11732394_at) / RFU HLA-DPB1 (11760878_x_at) / Fold change /veh HLA-DPB1 (11760878_x_at) / RFU SPINT1 (11716480_a_at) / Fold change /veh SPINT1 (11716480_a_at) / RFU GAP43 (11754022_s_at) / Fold change /veh GAP43 (11754022_s_at) / RFU A4GNT (11735810_at) / Fold change /veh A4GNT (11735810_at) / RFU PRB3 (11715151_x_at) / Fold change /veh PRB3 (11715151_x_at) / RFU TUBB4B (11761932_at) / Fold change /veh TUBB4B (11761932_at) / RFU CAPN14 (11732068_a_at) / Fold change /veh CAPN14 (11732068_a_at) / RFU TMCC2 (11721928_a_at) / Fold change /veh TMCC2 (11721928_a_at) / RFU IRGQ (11745062_a_at) / Fold change /veh IRGQ (11745062_a_at) / RFU FAM174B (11720279_a_at) / Fold change /veh FAM174B (11720279_a_at) / RFU TMPRSS4 (11748680_a_at) / Fold change /veh TMPRSS4 (11748680_a_at) / RFU FAM212B (11763350_a_at) / Fold change /veh FAM212B (11763350_a_at) / RFU PLEKHG5 (11743358_a_at) / Fold change /veh PLEKHG5 (11743358_a_at) / RFU ZSCAN30 (11745921_a_at) / Fold change /veh ZSCAN30 (11745921_a_at) / RFU CMKLR1 (11741424_a_at) / Fold change /veh CMKLR1 (11741424_a_at) / RFU LOC101060620 /// MAPK8IP1 (11723275_at) / Fold change /veh LOC101060620 /// MAPK8IP1 (11723275_at) / RFU SPTSSB (11747773_x_at) / Fold change /veh SPTSSB (11747773_x_at) / RFU PRSS12 (11739890_at) / Fold change /veh PRSS12 (11739890_at) / RFU BIN1 (11741810_x_at) / Fold change /veh BIN1 (11741810_x_at) / RFU WNT11 (11732464_a_at) / Fold change /veh WNT11 (11732464_a_at) / RFU C10orf10 (11716521_a_at) / Fold change /veh C10orf10 (11716521_a_at) / RFU C5orf56 (11738089_at) / Fold change /veh C5orf56 (11738089_at) / RFU CYB561 (11721691_x_at) / Fold change /veh CYB561 (11721691_x_at) / RFU ANKRD19P (11752326_a_at) / Fold change /veh ANKRD19P (11752326_a_at) / RFU OR2T12 /// OR2T33 /// OR2T8 (11738714_s_at) / Fold change /veh OR2T12 /// OR2T33 /// OR2T8 (11738714_s_at) / RFU VCAN (11748164_a_at) / Fold change /veh VCAN (11748164_a_at) / RFU JSRP1 (11732532_at) / Fold change /veh JSRP1 (11732532_at) / RFU KRTAP10-11 (11738290_x_at) / Fold change /veh KRTAP10-11 (11738290_x_at) / RFU MYO3A (11730013_a_at) / Fold change /veh MYO3A (11730013_a_at) / RFU EBF3 (11725865_a_at) / Fold change /veh EBF3 (11725865_a_at) / RFU CAMK2N1 (11719241_x_at) / Fold change /veh CAMK2N1 (11719241_x_at) / RFU C5orf56 (11738088_a_at) / Fold change /veh C5orf56 (11738088_a_at) / RFU OLFML3 (11715873_a_at) / Fold change /veh OLFML3 (11715873_a_at) / RFU LOC100653217 /// NTM (11731650_a_at) / Fold change /veh LOC100653217 /// NTM (11731650_a_at) / RFU MAPK11 (11762145_a_at) / Fold change /veh MAPK11 (11762145_a_at) / RFU FIZ1 (11724087_x_at) / Fold change /veh FIZ1 (11724087_x_at) / RFU OASL (11726364_x_at) / Fold change /veh OASL (11726364_x_at) / RFU SOX15 (11748057_x_at) / Fold change /veh SOX15 (11748057_x_at) / RFU CD79A (11719716_a_at) / Fold change /veh CD79A (11719716_a_at) / RFU HIST1H1D (11736915_at) / Fold change /veh HIST1H1D (11736915_at) / RFU CASKIN2 (11723855_a_at) / Fold change /veh CASKIN2 (11723855_a_at) / RFU LOC730098 (11760151_x_at) / Fold change /veh LOC730098 (11760151_x_at) / RFU OR4N2 (11742367_at) / Fold change /veh OR4N2 (11742367_at) / RFU PRRT2 (11749266_a_at) / Fold change /veh PRRT2 (11749266_a_at) / RFU SNX32 (11753110_a_at) / Fold change /veh SNX32 (11753110_a_at) / RFU CDHR5 (11726645_a_at) / Fold change /veh CDHR5 (11726645_a_at) / RFU RCAN1 (11760418_a_at) / Fold change /veh RCAN1 (11760418_a_at) / RFU FAM167A (11723789_a_at) / Fold change /veh FAM167A (11723789_a_at) / RFU FAM26E (11764081_at) / Fold change /veh FAM26E (11764081_at) / RFU ISYNA1 (11749810_s_at) / Fold change /veh ISYNA1 (11749810_s_at) / RFU ACY1 (11761880_at) / Fold change /veh ACY1 (11761880_at) / RFU 11764098_at / Fold change /veh 11764098_at / RFU SAMD14 (11745864_x_at) / Fold change /veh SAMD14 (11745864_x_at) / RFU NPB (11741838_a_at) / Fold change /veh NPB (11741838_a_at) / RFU TMPRSS6 (11731388_a_at) / Fold change /veh TMPRSS6 (11731388_a_at) / RFU KRTAP10-2 (11738614_at) / Fold change /veh KRTAP10-2 (11738614_at) / RFU ARHGAP8 /// PRR5-ARHGAP8 (11727945_x_at) / Fold change /veh ARHGAP8 /// PRR5-ARHGAP8 (11727945_x_at) / RFU KRTAP5-7 /// NADSYN1 (11734609_at) / Fold change /veh KRTAP5-7 /// NADSYN1 (11734609_at) / RFU RASL12 (11751679_a_at) / Fold change /veh RASL12 (11751679_a_at) / RFU CDKN2B (11736163_a_at) / Fold change /veh CDKN2B (11736163_a_at) / RFU PRF1 (11729649_at) / Fold change /veh PRF1 (11729649_at) / RFU, ZNF638 /// ZNF638-IT1 / Fold change vs veh, ZNF638 /// ZNF638-IT1 / RFU, PANK3 / Fold change vs veh, PANK3 / RFU, SH3YL1 / Fold change vs veh, SH3YL1 / RFU, ZEB2 / Fold change vs veh, ZEB2 / RFU, NRIP1 / Fold change vs veh, NRIP1 / RFU, PTTG1IP / Fold change vs veh, PTTG1IP / RFU, CAPN2 / Fold change vs veh, CAPN2 / RFU, MED14 / Fold change vs veh, MED14 / RFU, SNORA58 / Fold change vs veh, SNORA58 / RFU, C1orf63 / Fold change vs veh, C1orf63 / RFU, LRRFIP1 / Fold change vs veh, LRRFIP1 / RFU, NDUFAF7 / Fold change vs veh, NDUFAF7 / RFU, SLC12A2 / Fold change vs veh, SLC12A2 / RFU, IBTK / Fold change vs veh, IBTK / RFU, ESF1 / Fold change vs veh, ESF1 / Fold change vs veh, TMEM50B / RFU, TAOK1 / Fold change vs veh, TAOK1 / RFU, ACBD3 / Fold change vs veh, ACBD3 / RFU, TMA16 / Fold change vs veh, TMA16 / RFU, RWDD3 / Fold change vs veh, RWDD3 / RFU, BCAT1 / Fold change vs veh, BCAT1 / RFU, EDEM3 / Fold change vs veh, EDEM3 / RFU, TMEM33 / Fold change vs veh, TMEM33 / RFU, WDR75 / Fold change vs veh, WDR75 / RFU, AHCTF1 / Fold change vs veh, AHCTF1 / RFU, TFRC / Fold change vs veh, TFRC / RFU, ZDHHC17 / Fold change vs veh, ZDHHC17 / RFU, NOM1 / Fold change vs veh, NOM1 / RFU, ARL8B / Fold change vs veh, ARL8B / RFU, ZBTB11 / Fold change vs veh, ZBTB11 / RFU, TAMM41 / Fold change vs veh, TAMM41 / RFU, KIAA1704 /// LOC100996395 / Fold change vs veh, KIAA1704 /// LOC100996395 / RFU, ING1 / Fold change vs veh, ING1 / RFU, TRMT61B / Fold change vs veh, TRMT61B / RFU, FUBP3 / Fold change vs veh, FUBP3 / RFU, TP53 / Fold change vs veh, TP53 / RFU, TNKS2 / Fold change vs veh, TNKS2 / RFU, ZFP14 / Fold change vs veh, ZFP14 / RFU, ACTR2 / Fold change vs veh, ACTR2 / RFU, PPP3R1 / Fold change vs veh, PPP3R1 / RFU, PIK3R1 / Fold change vs veh, PIK3R1 / RFU, HNRNPA1 / Fold change vs veh, HNRNPA1 / RFU, RNF170 / Fold change vs veh, RNF170 / RFU, ZNF28 / Fold change vs veh, ZNF28 / RFU, RNGTT / Fold change vs veh, RNGTT / RFU, OGT / Fold change vs veh, OGT / RFU, BRD1 / Fold change vs veh, BRD1 / RFU, MARS / Fold change vs veh, MARS / RFU, ZNF655 / Fold change vs veh, ZNF655 / RFU, FAHD1 / Fold change vs veh, FAHD1 / RFU, BDP1 / Fold change vs veh, BDP1 / RFU, LRRCC1 / Fold change vs veh, LRRCC1 / RFU, ARID1A / Fold change vs veh, ARID1A / RFU, ZNF146 / Fold change vs veh, ZNF146 / RFU, ZNF330 / Fold change vs veh, ZNF330 / RFU, GPN3 / Fold change vs veh, GPN3 / RFU, C9orf123 / Fold change vs veh, C9orf123 / RFU, N4BP2L2 / Fold change vs veh, N4BP2L2 / RFU, ARFIP1 / Fold change vs veh, ARFIP1 / RFU, FAM179B / Fold change vs veh, FAM179B / RFU, BCL10 / Fold change vs veh, BCL10 / RFU, UHRF1BP1L / Fold change vs veh, UHRF1BP1L / RFU, BET1 / Fold change vs veh, BET1 / RFU, CNOT2 / Fold change vs veh, CNOT2 / RFU, ZNF268 / Fold change vs veh, ZNF268 / Fold change vs veh, ZNF507 / RFU, DGCR2 / Fold change vs veh, DGCR2 / RFU, WDSUB1 / Fold change vs veh, WDSUB1 / Fold change vs veh, HSP90B1 /// MIR3652 / RFU, ADSS / Fold change vs veh, ADSS / RFU, GK / Fold change vs veh, GK / RFU, ZNF148 / Fold change vs veh, ZNF148 / RFU, TAF9 / Fold change vs veh, TAF9 / RFU, SLC1A5 / Fold change vs veh, SLC1A5 / RFU, SLMO2 / Fold change vs veh, SLMO2 / RFU, ABCC4 / Fold change vs veh, ABCC4 / RFU, LOC101060439 /// RAP1B / Fold change vs veh, LOC101060439 /// RAP1B / RFU, RFX7 / Fold change vs veh, RFX7 / RFU, GTPBP10 / Fold change vs veh, GTPBP10 / RFU, CNEP1R1 / Fold change vs veh, CNEP1R1 / RFU, BIVM-ERCC5 /// ERCC5 / Fold change vs veh, BIVM-ERCC5 /// ERCC5 / RFU, ILF3 / Fold change vs veh, ILF3 / RFU 11762660_at / Fold change /veh 11762660_at / RFU VCAN (11757783_s_at) / Fold change /veh VCAN (11757783_s_at) / RFU DDX43 (11728927_at) / Fold change /veh DDX43 (11728927_at) / RFU KRT8 (11758188_x_at) / Fold change /veh KRT8 (11758188_x_at) / RFU NKD1 (11759106_at) / Fold change /veh NKD1 (11759106_at) / RFU SRD5A1 (11742802_a_at) / Fold change /veh SRD5A1 (11742802_a_at) / RFU TPSAB1 /// TPSB2 (11721975_s_at) / Fold change /veh TPSAB1 /// TPSB2 (11721975_s_at) / RFU GSTM3 (11746129_a_at) / Fold change /veh GSTM3 (11746129_a_at) / RFU IL23R (11737362_x_at) / Fold change /veh IL23R (11737362_x_at) / RFU TMEM51 (11727254_a_at) / Fold change /veh TMEM51 (11727254_a_at) / RFU PIWIL2 (11732686_x_at) / Fold change /veh PIWIL2 (11732686_x_at) / RFU ORM1 (11744905_x_at) / Fold change /veh ORM1 (11744905_x_at) / RFU CCDC152 (11743942_at) / Fold change /veh CCDC152 (11743942_at) / RFU ECM1 (11717891_a_at) / Fold change /veh ECM1 (11717891_a_at) / RFU IL23R (11748794_a_at) / Fold change /veh IL23R (11748794_a_at) / RFU TNFAIP8L3 (11732012_x_at) / Fold change /veh TNFAIP8L3 (11732012_x_at) / RFU MBOAT4 (11741988_at) / Fold change /veh MBOAT4 (11741988_at) / RFU 11764193_at / Fold change /veh 11764193_at / RFU TMEM53 (11763286_at) / Fold change /veh TMEM53 (11763286_at) / RFU MAGEB2 (11727129_at) / Fold change /veh MAGEB2 (11727129_at) / RFU TMEM200A (11744735_a_at) / Fold change /veh TMEM200A (11744735_a_at) / RFU CCDC152 (11751479_a_at) / Fold change /veh CCDC152 (11751479_a_at) / RFU FAM211A (11726209_a_at) / Fold change /veh FAM211A (11726209_a_at) / RFU RGS16 (11746705_a_at) / Fold change /veh RGS16 (11746705_a_at) / RFU VCAN (11755009_s_at) / Fold change /veh VCAN (11755009_s_at) / RFU RHOB (11743442_s_at) / Fold change /veh RHOB (11743442_s_at) / RFU RGS16 (11720943_a_at) / Fold change /veh RGS16 (11720943_a_at) / RFU RGS16 (11720944_at) / Fold change /veh RGS16 (11720944_at) / RFU, VPS4B / Fold change vs veh, VPS4B / RFU, CREB1 / Fold change vs veh, CREB1 / RFU, DNAJC13 / Fold change vs veh, DNAJC13 / RFU, GNAQ / Fold change vs veh, GNAQ / RFU, CDK5R1 / Fold change vs veh, CDK5R1 / RFU, ZRANB3 / Fold change vs veh, ZRANB3 / RFU, CUL4A / Fold change vs veh, CUL4A / RFU, CCNY / Fold change vs veh, CCNY / RFU, UFL1 / Fold change vs veh, UFL1 / RFU, COG3 / Fold change vs veh, COG3 / RFU, DIAPH2 / Fold change vs veh, DIAPH2 / RFU, SKA2 / Fold change vs veh, SKA2 / RFU, AFF3 / Fold change vs veh, AFF3 / RFU, LMF1 / Fold change vs veh, LMF1 / RFU, IPO11 / Fold change vs veh, IPO11 / RFU, DFFB / Fold change vs veh, DFFB / RFU, FOXP1 / Fold change vs veh, FOXP1 / RFU, CARD8 / Fold change vs veh, CARD8 / RFU, STRN3 / Fold change vs veh, STRN3 / RFU, ADK / Fold change vs veh, ADK / RFU, RASSF2 / Fold change vs veh, RASSF2 / RFU, WIPF1 / Fold change vs veh, WIPF1 / RFU, LARP1B / Fold change vs veh, LARP1B / RFU, RASA1 / Fold change vs veh, RASA1 / RFU, RB1 / Fold change vs veh, RB1 / RFU, PPFIA1 / Fold change vs veh, PPFIA1 / RFU, MAT2A / Fold change vs veh, MAT2A / RFU, CCT5 / Fold change vs veh, CCT5 / RFU, WDR92 / Fold change vs veh, WDR92 / RFU, CUX1 / Fold change vs veh, CUX1 / RFU, TTC7A / Fold change vs veh, TTC7A / RFU, TMEM135 / Fold change vs veh, TMEM135 / RFU, DEPTOR / Fold change vs veh, DEPTOR / RFU, CPM / Fold change vs veh, CPM / RFU, DNAJB6 / Fold change vs veh, DNAJB6 / RFU, CACNA2D3 / Fold change vs veh, CACNA2D3 / RFU, DTX4 / Fold change vs veh, DTX4 / RFU, TFCP2 / Fold change vs veh, TFCP2 / RFU, GMCL1 /// GMCL1P1 / Fold change vs veh, GMCL1 /// GMCL1P1 / RFU, AEBP2 / Fold change vs veh, AEBP2 / RFU, SNHG1 /// SNORD22 /// SNORD25 /// SNORD26 /// SNORD27 /// SNORD28 /// SNORD29 /// SNORD31 / Fold change vs veh, SNHG1 /// SNORD22 /// SNORD25 /// SNORD26 /// SNORD27 /// SNORD28 /// SNORD29 /// SNORD31 / Fold change (Aza/veh), C12orf56 (ProbeSet 11735607_a_at) / Fold change (ACY-1035/veh), C12orf56 (ProbeSet 11735607_a_at) / Fold change (Aza/veh), FGFR1OP (ProbeSet 11751329_s_at) / Fold change (ACY-1035/veh), FGFR1OP (ProbeSet 11751329_s_at) / Fold change (Aza/veh), VPS36 (ProbeSet 11739960_a_at) / Fold change (ACY-1035/veh), VPS36 (ProbeSet 11739960_a_at) / RFU SYPL1 (11715823_x_at) / Fold change /veh SYPL1 (11715823_x_at) / RFU IGFBP7 (11715501_s_at) / Fold change /veh IGFBP7 (11715501_s_at) / RFU REEP3 (11722064_at) / Fold change /veh REEP3 (11722064_at) / RFU IGLL1 (11728026_x_at) / Fold change /veh IGLL1 (11728026_x_at): dose or concentration left out as unconfirmed
Conditions: ProbeSet 11725902_s_at; LIST D

For Nc1ncn([C@@H]2O[C@H](CO)[C@@H](O)[C@H]2O)c(=O)n1 [azacitidine], the “Fold change vs veh, TMEM135” value was 0.57.
